Numbering of substitutions follows the chain as printed. In names and notes the source's numbering stands. Where two headings read alike, the source gives them in different places.
Key:
Type in all cases: cell-based
T98G cells = assay: PCR-stop assay of cisplatin-DNA adduct formation and repair
Text: The PCR-stop assay was used to quantitate cisplatin-DNA adduct formation and subsequent repair (Horton et al., Nucl. Acids. Res. 23:3810-3815 (1995), which is incorporated herein by reference). The assay is based on the observation that the efficiency of amplification of cisplatin-treated DNA is inversely proportional to the degree of platination. […] DNA was amplified quantitatively to produce a 2.7 kb product of the hypoxanthine phosphoribosyl transferase (HPRT) gene and a 0.15 kb nested fragment of the HPRT gene using ^32P-end labeled primers: 5′-[…]-3′(5′ primer; SEQ ID NO: 3) and 5′-[…]-3′ (3′ primer; SEQ ID NO: 4), for the 2.7 kb product; 5′-[…]-3′(5′ nested primer; SEQ ID NO: 5) and the above 3′ primer (SEQ ID NO: 4) for the 0.15 kb product. The 0.15 kb product contains undetectable levels of DNA damage under the present conditions and serves as an internal PCR control and as the basis for normalization of the amount of amplification of the 2.7 kb product. The number of lesions per 2.7 kb product was calculated as […] (cpm damaged DNA/cpm undamaged DNA).
As a control, […], which inhibits DNA repair by inhibiting ADP-ribosylation, was added with cisplatin.

SAPK (JNK) = SAPK (JNK) assay in T98G cells; conditions: for increase in SAPK (JNK) activity: T98G cells incubated with 250, 500 or 1000 μM for 1 hr
Experimental: T98G glioblastoma cells were maintained in Dulbecco's modified minimal medium containing 5% fetal calf serum. SAPK (JNK) assays were performed as described by Hibi et al. (supra, 1993). c-jun and dn-jun expression were quantitated using the methods and antibodies described by Grover-Bardwick et al. (Carcinogenesis 15:1667-1674 (1994), which is incorporated herein by reference).
Cisplatin, but not transplatin, forms covalent crosslinks between adjacent guanine or guanine-adenine residues. […] As a control, UV-C irradiation was performed and similarly produced a dose-dependent increase in SAPK activity.

T98G glioblastoma cells = assay: Cell viability (MTS method), T98G cells; conditions: for IC50: 1 hr exposure, viability 5 days later, read-out: IC-50 for cisplatin
Experimental: (§1) Cell viability was determined using the MTS method (Promega Corp.; Madison Wis.), measuring the […] of the formazan product 1 hr after adding the MTS (Gjerset et al., Mol. Carcin. 14:275-285 (1995), which is incorporated herein by reference). Cells were seeded into 96 well plates. After 24 hr, various concentrations of cisplatin or transplatin was added and incubation was continued for 1 hr. Medium was then removed and replaced with fresh medium and cell viability was determined 5 days later. Experiments were performed in quadruplicate; cell viability is expressed as the ratio of the viable cells following treatment to viable untreated cells.
The IC-50 for cisplatin was determined using the T98G cells that express dn-jun, control T98G cells and T98G cells stably transfected with the corresponding empty vector. […] In comparison, expression of dn-jun in T98G cells decreased the IC-50 to 21 μM, which represents a 7-fold increase in sensitivity.

[1] = tested on: PC3 prostate carcinoma cells; assay: Cell viability, PC3 cells; conditions: for IC50: read-out: IC-50 (cisplatin)
Experimental: as §1
PC3 prostate carcinoma cells were genetically modified to express dn-jun or a second dominant negative c-jun, Tam-67, both of which were under control of the metallothionein promoter (Brown et al., Oncogene 9:791-799 (1994), which is incorporated herein by reference).

AP-1 = assay: Basal AP-1 activity in dn-jun transfected T98G cells; conditions: T98G cells stably expressing dn-jun
Text: (§2) T98G cells were stably transfected with a cDNA encoding the dn-jun (Smeal et al., supra, 1991; Smeal et al., supra, 1992) and clonal lines were obtained. Expression of dn-jun had no effect on basal AP-1 activity or on the enzyme activity of SAPK. In contrast, dn-jun expression inhibited phosphorylation-dependent activation of transcription.

[2] = tested on: U87 human glioblastoma cells; assay: Cell viability, U87 cells; conditions: U87 cells expressing dn-jun vs parental U87 cells
Experimental: as §1
(§3) In other experiments, U87 human glioblastoma cells and MCF-7 breast cancer cells were stably transfected with the vector expressing dn-jun and clonal lines were isolated.

[3] = tested on: MCF-7 breast cancer cells; assay: Cell viability, MCF-7 cells; conditions: MCF-7 cells expressing dn-jun vs parental cells
Experimental: as §1, §3

[4] = tested on: phosphorylation-dependent activation of transcription; assay: Phosphorylation-dependent activation of transcription in dn-jun transfected T98G cells; conditions: T98G cells stably expressing dn-jun
Text: as §2

[5] = ABZ added with cisplatin, 6 hr recovery period

N.N.[Cl][Pt][Cl] [cisplatin]
DNA damage (T98G cells; DNA isolated immediately after 1 hr treatment with 0, 100 or 200 μM): increasing levels of DNA damage | increase in SAPK (JNK) activity (SAPK (JNK)): up to 10 fold | IC50 (T98G glioblastoma cells; T98G cells expressing dn-jun): 21 µM | IC50 (T98G glioblastoma cells; control (untransfected) T98G cells): 147 µM | IC50 ([1]; PC3 cells expressing dn-jun): 18 µM | IC50 ([1]; control PC3 cells): 109 µM

N.N.[Cl][Pt+2][Cl] [transplatin]
increase in SAPK (JNK) activity (SAPK (JNK)): no effect was observed

Nc1ccc(-c2ccc(N)cc2N)cc1 [ABZ, 2-aminobenzidine]
DNA repair (T98G cells; [5]): no repair was observed | level of DNA damage (T98G cells; [5]): substantially increased

B1: dn-jun: dominant negative mutant of c-jun containing alanine-63 and alanine-73 substitutions; cannot be phosphorylated by SAPK (protein, UniProt P05412 1-331, looked up, variant S63A S73A)
Transcription factor Jun: MTAKMETTFYDDALNASFLPSESGPYGYSNPKILKQSMTLNLADPVGSLKPHLRAKNSDLLTAPDVGLLKLAAPELERLIIQSSNGHITTTPTPTQFLCPKNVTDEQEGFAEGFVRALAELHSQNTLPSVTSAAQPVNGAGMVAPAVASVAGGSGSGGFSASLHSEPPVYANLSNFNPGALSSGGGAPSYGAAGLAFPAQPQQQQQPPHHLPQQMPVQHPRLQALKEEPQTVPEMPGETPPLSPIDMESQERIKAERKRMRNRIAASKCRKRKLERIARLEEKVKTLKAQNSELASTANMLREQVAQLKQKVMNHVNSGCQLMLTQQLQTF
basal AP-1 activity (AP-1): no effect | enzyme activity of SAPK (SAPK (JNK); T98G cells stably expressing dn-jun): no effect | increased sensitivity to cisplatin [2]: 2.5 fold | increased sensitivity to cisplatin [3]: 3 fold | phosphorylation-dependent activation of transcription [4]: inhibited | increased sensitivity to cisplatin ([1]; PC3 cells expressing dn-jun vs control cells): greater than 7 fold | increased sensitivity to cisplatin ([1]; PC3 cells expressing dn-jun vs vector control cells): greater than 9 fold

B2: c-jun: c-jun transcription factor, the SAPK substrate, with increased expression in T98G cells (protein, UniProt P05412 1-331, looked up)
Transcription factor Jun: B1 Transcription factor Jun with A63S, A73S
viability of cells to cisplatin exposure (T98G glioblastoma cells; increased expression of c-jun in T98G cells): somewhat increased

— US6579856B2, “Inhibition of stress activated protein kinase (SAPK) pathway and sensitization of cells to cancer therapies” (priority 1997, dated 2003)
